Measured values as given in patent US11584744B2 (UNIVERSITY OF WASHINGTON, priority 2017, dated 2023).
In brackets after ≈: the same amount, converted by molar mass. Read-outs that look alike come from different tables or passages of the source.

Legend:
[1] = test system: T. cruzi; assay: T. cruzi growth inhibition; type: cell-based, Trypanosoma cruzi; conditions: read-out: (E) T. cruzi EC50
[2] = test system: E. faecium VRE (ATCC 51559); assay: MIC susceptibility testing; type: cell-based, Enterococcus faecium; conditions: Enterococcus faecium, read-out: (I) E. faecium (ATCC 51559) MIC
Source text: Media and culture conditions. Mueller Hinton broth (MHB), cation adjusted Mueller Hinton broth (CA-MHB), and Brain Heart Infusion broth (BHI) were purchased from Becton Dickinson (Franklin Lakes, N.J.). Tryptic soy agar (TSA) plates, TSA with 5% sheep blood plates, and CA-MHB with 3% laked horse blood were purchased from Remel (San Diego, Calif.). MHB was used to assay all Staphylococcus aureus strains. CA-MHB was used for Staphylococcus epidermidis, Enterococcus faecalis, Enterococcus faecium, Escherichia coli, and Pseudomonas aeruginosa. CA-MHB supplemented with 3% laked horse blood was used for Streptococcus pneumoniae and Streptococcus pyogenes. Staphylococcus, Enterococcus, Escherichia, and Pseudomonas strains were cultured at 37° C. with ambient air. Streptococcus strains were cultured in 37° C. with 5% CO2. Separate conditions for radiolabeled precursor uptake assays are described below.
Susceptibility testing: Minimum inhibitory concentration (MIC) determinations were performed in triplicate in 96-well round bottom microtiter plates (Corning, Corning N.Y.) as described by the Clinical and Laboratory Standards Institute (CLSI). Serial two-fold dilutions of compounds were added to plates in 50 μL volumes. An additional 50 μL of media containing bacterial cells (1×10^6 CFUs/mL) was then added to each well. Maximum DMSO concentrations were 0.5%. Plates were incubated at 37° C. for at least 18 h before reading the susceptibility result by optical absorbance (OD600) using a BioTek ELx800. The lowest concentration causing ≥90% growth inhibition compared to the untreated control was recorded as the MIC (and also corresponded to the visual MIC). MICs were measured at least twice and the higher value (if different) was recorded herein.

[3] = test system: C. parvum; assay: C. parvum growth inhibition; type: cell-based, Cryptosporidium parvum; conditions: read-out: (J) C. parvum EC50
[4] = molecular target: MetRS (C. parvum) (Cryptosporidium parvum, UniProt Q5CVN0); assay: MetRS (C. parvum) enzyme inhibition; type: biochemical
MetRS (C. parvum), sequence (Q5CVN0 entry or part of it): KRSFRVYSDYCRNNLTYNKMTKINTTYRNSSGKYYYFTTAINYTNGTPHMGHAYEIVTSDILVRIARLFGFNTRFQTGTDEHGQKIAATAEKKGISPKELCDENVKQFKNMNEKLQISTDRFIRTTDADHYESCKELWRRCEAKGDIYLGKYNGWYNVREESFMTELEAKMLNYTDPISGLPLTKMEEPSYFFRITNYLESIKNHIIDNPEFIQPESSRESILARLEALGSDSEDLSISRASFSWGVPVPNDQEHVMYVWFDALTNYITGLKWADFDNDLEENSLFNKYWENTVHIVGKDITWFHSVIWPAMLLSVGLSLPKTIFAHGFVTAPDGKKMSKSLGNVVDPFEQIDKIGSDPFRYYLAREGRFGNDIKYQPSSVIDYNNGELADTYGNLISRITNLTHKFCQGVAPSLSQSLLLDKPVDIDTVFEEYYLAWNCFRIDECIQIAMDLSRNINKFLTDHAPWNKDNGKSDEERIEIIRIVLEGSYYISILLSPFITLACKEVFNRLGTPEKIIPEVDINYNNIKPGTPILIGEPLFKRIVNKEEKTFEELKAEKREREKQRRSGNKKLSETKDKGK

[5] = test system: S. aureus MRSA (ATCC 33591); assay: MIC susceptibility testing; type: cell-based, Staphylococcus aureus; conditions: Staphylococcus aureus, read-out: (G) MRSA (ATCC33591) MIC
Summary of the method: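 CLSI broth microdilution in triplicate, 5×10^5 CFU/mL final, ≤0.5% DMSO; MHB for S. aureus, CA-MHB for E. coli and E. faecium, CA-MHB plus 3% laked horse blood for S. pyogenes (5% CO2).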

[6] = test system: S. aureus MSSA (ATCC 29213); assay: MIC susceptibility testing; type: cell-based, Staphylococcus aureus; conditions: for MIC: Staphylococcus aureus, read-out: (F) S. aureus (ATCC 29213) MIC
[7] = molecular target: T1, MetRS (T. brucei) (Trypanosoma brucei brucei, UniProt Q38C91); assay: MetRS (T. brucei) enzyme inhibition; type: biochemical
T1 sequence (Q38C91 1-773): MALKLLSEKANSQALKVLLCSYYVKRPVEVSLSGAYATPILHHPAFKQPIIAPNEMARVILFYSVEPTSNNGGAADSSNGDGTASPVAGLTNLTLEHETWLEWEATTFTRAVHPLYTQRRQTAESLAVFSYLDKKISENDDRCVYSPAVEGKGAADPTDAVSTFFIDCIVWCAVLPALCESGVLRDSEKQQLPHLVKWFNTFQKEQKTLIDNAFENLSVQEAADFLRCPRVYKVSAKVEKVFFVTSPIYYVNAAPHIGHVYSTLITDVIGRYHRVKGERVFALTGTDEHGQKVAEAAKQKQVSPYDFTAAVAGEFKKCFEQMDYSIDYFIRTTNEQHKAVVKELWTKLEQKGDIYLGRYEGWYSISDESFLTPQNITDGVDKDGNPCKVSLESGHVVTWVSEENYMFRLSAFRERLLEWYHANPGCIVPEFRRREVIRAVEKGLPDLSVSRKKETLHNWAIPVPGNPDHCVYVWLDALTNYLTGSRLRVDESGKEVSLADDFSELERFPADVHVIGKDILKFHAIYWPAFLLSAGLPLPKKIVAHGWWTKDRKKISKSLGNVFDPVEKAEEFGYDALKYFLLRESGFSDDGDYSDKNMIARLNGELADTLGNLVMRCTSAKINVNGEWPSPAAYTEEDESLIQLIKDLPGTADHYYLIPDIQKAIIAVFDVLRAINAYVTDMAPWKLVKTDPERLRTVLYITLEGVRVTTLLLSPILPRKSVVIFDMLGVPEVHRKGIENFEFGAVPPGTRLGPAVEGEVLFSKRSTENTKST

[8] = test system: T. brucei; assay: T. brucei growth inhibition; type: cell-based, Trypanosoma brucei; conditions: Trypanosoma brucei; read-out: (D) T. brucei EC50
[9] = read-out: (C) MetRS (C. parvum) IC50

SMILES	EC50 ([1]; Trypanosoma cruzi) [nM]	MIC ([2]; E. faecium ATCC 51559) [µg/mL]	EC50 ([3]; Cryptosporidium parvum) [nM]	EC50 [3] [nM]	IC50 [4, 9] [nM]	MIC ([5]; MRSA ATCC33591) [µg/mL]	MIC ([6]; S. aureus ATCC 29213) [µg/mL]	IC50 [7] [nM]	EC50 [8] [nM]	MIC [2] [µg/mL]	IC50 [4] [nM]	MIC [5] [µg/mL]	MIC [6] [µg/mL]	(F) S. aureus (ATCC 29213) MIC ([6]; S. aureus ATCC 29213) [µg/mL]	EC50 [1] [nM]
COc1ccc(-c2ccc(NC(C)=O)c3nc(Cc4nc5cc(Cl)ccc5[nH]4)cn23)c(Cl)c1 [Compound 2180, N-{2-[(6-chloro-1H-1,3-benzodiazol-2-yl)methyl]-5-(2-chloro-4-methoxyphenyl)imidazo[1,2-a]pyridin-8-yl}acetamide]	179	0.357 (≈ 0.743 µM)	656	640	< 40	0.515 (≈ 1.07 µM)	0.362 (≈ 0.754 µM)	< 40	18.5	–	–	–	–	–	–
Clc1ccc(Cc2cn(Cc3nc4nc(Cl)ccc4[nH]3)cn2)c(Cl)c1 [Compound 2189, 1-({5-chloro-1H-imidazo[4,5-b]pyridin-2-yl}methyl)-4-[(2,4-dichlorophenyl)methyl]-1H-imidazole]	156	–	2000	–	–	–	–	< 40	7.9	0.704 (≈ 1.79 µM)	< 40	0.596 (≈ 1.52 µM)	0.676 (≈ 1.72 µM)	–	–
O=C(c1cn(Cc2nc3ccc(Cl)nc3[nH]2)c(=O)[nH]1)c1ccc(Cl)cc1Cl [Compound 2201, 1-({5-chloro-1H-imidazo[4,5-b]pyridin-2-yl}methyl)-4-(2,4-dichlorobenzoyl)-2,3-dihydro-1H-imidazol-2-one]	207	0.979 (≈ 2.32 µM)	> 2000	–	72.2	0.701 (≈ 1.66 µM)	0.863 (≈ 2.04 µM)	< 40	4.88	–	–	–	–	0.946	–
CCn1c(C(=O)c2ccc(Cl)cc2Cl)cn(Cc2nc3ccc(Cl)nc3[nH]2)c1=O [Compound 2203, 1-((5-chloro-3H-imidazo[4,5-b]pyridin-2-yl)methyl)-4-(2,4-dichlorobenzoyl)-3-ethyl-1,3-dihydro-2H-imidazol-2-one]	34.7	0.172 (≈ 0.382 µM)	> 2000	–	99.4	0.359 (≈ 0.797 µM)	0.34 (≈ 0.754 µM)	< 40	1.73	–	–	–	–	–	45.2
CCn1c(C(O)c2ccc(Cl)cc2Cl)cn(Cc2nc3nc(Cl)ccc3[nH]2)c1=O (centres unmarked) [Compound 2204, 1-({5-chloro-1H-imidazo[4,5-b]pyridin-2-yl}methyl)-4-[(2,4-dichlorophenyl)(hydroxy)methyl]-3-ethyl-2,3-dihydro-1H-imidazol-2-one]	366	0.167 (≈ 0.369 µM)	1920	–	82.5	0.293 (≈ 0.647 µM)	1.11 (≈ 2.45 µM)	53	6.38	–	–	–	–	0.927	–
